Experimental data: PubChem BioAssay AID248 (DTP/NCI, 2004)
“And” between values parts separate entries of the source, which are not always exact repeats. Equal entries are not always repeated. Inconclusive results and toxic doses are left out. Cut-off read from the data, not from the text of the source: active = T/C of 150% or more; inactive = T/C below 125%.

Test system: L1210 leukemia ip in BDF1 mice, survival T/C
Assay: NCI In Vivo Anticancer Drug Screen. Data for tumor model L1210 Leukemia (intraperitoneal) in B6D2F1 (BDF1) mice
Details: higher = longer survival
How it was run: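 Survival endpoint. Drug-treated group vs vehicle group, expressed as T divided by C. Tumor passaged by transplantation.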

Measured: T/C

C[C@@H]1C[C@@H]([C@H](O)CC2CC(=O)NC(=O)C2)C(=O)[C@@H](C)C1
inactive: endpoint: mean survival time, dose: 1.5 mg/kg/injection, schedule: Q01DX009 (ip), vehicle: saline with Tween-80 109 % of control | endpoint: mean survival time, dose: 4.31 mg/kg/injection, schedule: Q01DX Z (ip), vehicle: carboxymethylcellulose (CMC) 104 % of control | endpoint: mean survival time, dose: 5.0 mg/kg/injection, schedule: Q01DX010 (ip), vehicle: saline 103 % of control and 107 % of control | endpoint: mean survival time, dose: 7.5 mg/kg/injection, schedule: Q01DX Z (ip), vehicle: carboxymethylcellulose (CMC) 97 % of control and 100 % of control | endpoint: mean survival time, dose: 8.63 mg/kg/injection, schedule: Q01DX Z (ip), vehicle: carboxymethylcellulose (CMC) 102 % of control | endpoint: mean survival time, dose: 10.0 mg/kg/injection, schedule: Q01DX009 (ip), vehicle: acetone 106 % of control | endpoint: mean survival time, dose: 10.0 mg/kg/injection, schedule: Q01DX010 (ip), vehicle: saline 104 % of control and 108 % of control | endpoint: mean survival time, dose: 12.5 mg/kg/injection, schedule: Q01DX Z (ip), vehicle: carboxymethylcellulose (CMC) 108 % of control | endpoint: mean survival time, dose: 15.0 mg/kg/injection, schedule: Q01DX009 (ip), vehicle: Klucel (hydroxypropylcellulose) (HPC) 114 % of control | endpoint: mean survival time, dose: 15.0 mg/kg/injection, schedule: Q01DX009 (ip), vehicle: saline 123 % of control | endpoint: mean survival time, dose: 15.0 mg/kg/injection, schedule: Q01DX Z (ip), vehicle: carboxymethylcellulose (CMC) 108 % of control and 116 % of control | endpoint: mean survival time, dose: 16.0 mg/kg/injection, schedule: Q01DX015 (ip), vehicle: saline 119 % of control | endpoint: mean survival time, dose: 17.25 mg/kg/injection, schedule: Q01DX Z (ip), vehicle: carboxymethylcellulose (CMC) 103 % of control | endpoint: mean survival time, dose: 18.0 mg/kg/injection, schedule: Q01DX015 (ip), vehicle: saline 119 % of control | endpoint: mean survival time, dose: 20.0 mg/kg/injection, schedule: Q01DX009 (ip), vehicle: acetone 119 % of control | endpoint: mean survival time, dose: 20.0 mg/kg/injection, schedule: Q01DX010 (ip), vehicle: saline 110 % of control and 114 % of control | endpoint: mean survival time, dose: 24.3 mg/kg/injection, schedule: Q02DX010 (ip), vehicle: carboxymethylcellulose (CMC) 97 % of control | endpoint: mean survival time, dose: 25.0 mg/kg/injection, schedule: Q01DX Z (ip), vehicle: carboxymethylcellulose (CMC) 106 % of control | endpoint: mean survival time, dose: 25.0 mg/kg/injection, schedule: Q02DX010 (ip), vehicle: other 112 % of control | endpoint: mean survival time, dose: 27.0 mg/kg/injection, schedule: Q01DX015 (ip), vehicle: saline 107 % of control | endpoint: mean survival time, dose: 30.0 mg/kg/injection, schedule: Q01DX009 (ip), vehicle: Klucel (hydroxypropylcellulose) (HPC) 113 % of control | endpoint: mean survival time, dose: 30.0 mg/kg/injection, schedule: Q01DX009 (ip), vehicle: saline with Tween-80 121 % of control | endpoint: mean survival time, dose: 30.0 mg/kg/injection, schedule: Q04DX003 (ip), vehicle: Klucel (hydroxypropylcellulose) (HPC) 108 % of control | endpoint: mean survival time, dose: 32.0 mg/kg/injection, schedule: Q## X004 (ip), vehicle: saline 97 % of control | endpoint: mean survival time, dose: 34.5 mg/kg/injection, schedule: Q01DX Z (ip), vehicle: carboxymethylcellulose (CMC) 121 % of control | endpoint: mean survival time, dose: 36.0 mg/kg/injection, schedule: Q01DX015 (ip), vehicle: saline 115 % of control | endpoint: mean survival time, dose: 37.5 mg/kg/injection, schedule: Q02DX008 (ip), vehicle: saline 108 % of control | endpoint: mean survival time, dose: 38.0 mg/kg/injection, schedule: Q02DX010 (ip), vehicle: other 120 % of control | endpoint: mean survival time, dose: 40.0 mg/kg/injection, schedule: Q01DX010 (ip), vehicle: saline 109 % of control and 116 % of control | endpoint: mean survival time, dose: 42.0 mg/kg/injection, schedule: Q## X032 (ip), vehicle: saline 113 % of control | endpoint: mean survival time, dose: 44.0 mg/kg/injection, schedule: Q01DX001 (ip), vehicle: saline 103 % of control | endpoint: mean survival time, dose: 45.0 mg/kg/injection, schedule: Q01DX Z (ip), vehicle: methylcellulose (MC) 106 % of control | endpoint: mean survival time, dose: 45.0 mg/kg/injection, schedule: Q04DX003 (ip), vehicle: saline 106 % of control | endpoint: mean survival time, dose: 48.0 mg/kg/injection, schedule: Q## X004 (ip), vehicle: saline 96 % of control | endpoint: mean survival time, dose: 50.0 mg/kg/injection, schedule: Q01DX Z (ip), vehicle: carboxymethylcellulose (CMC) 118 % of control | endpoint: mean survival time, dose: 56.0 mg/kg/injection, schedule: Q02DX008 (ip), vehicle: saline 115 % of control | endpoint: mean survival time, dose: 60.0 mg/kg/injection, schedule: Q01DX009 (ip), vehicle: saline 102 % of control | endpoint: mean survival time, dose: 60.0 mg/kg/injection, schedule: Q01DX Z (ip), vehicle: methylcellulose (MC) 106 % of control | endpoint: mean survival time, dose: 60.0 mg/kg/injection, schedule: Q04DX003 (ip), vehicle: Klucel (hydroxypropylcellulose) (HPC) 122 % of control | endpoint: mean survival time, dose: 64.0 mg/kg/injection, schedule: Q## X032 (ip), vehicle: saline 106 % of control and 110 % of control | endpoint: mean survival time, dose: 67.0 mg/kg/injection, schedule: Q01DX001 (ip), vehicle: saline 115 % of control | endpoint: mean survival time, dose: 72.0 mg/kg/injection, schedule: Q## X004 (ip), vehicle: saline 112 % of control | endpoint: mean survival time, dose: 80.0 mg/kg/injection, schedule: Q01DX001 (ip), vehicle: alkali diluted with saline 107 % of control | endpoint: mean survival time, dose: 81.0 mg/kg/injection, schedule: Q01DX015 (ip), vehicle: saline 123 % of control | endpoint: mean survival time, dose: 85.5 mg/kg/injection, schedule: Q02DX010 (ip), vehicle: other 117 % of control | endpoint: mean survival time, dose: 90.0 mg/kg/injection, schedule: Q01DX009 (ip), vehicle: saline 97 % of control | endpoint: mean survival time, dose: 90.0 mg/kg/injection, schedule: Q04DX003 (ip), vehicle: saline 101 % of control | endpoint: mean survival time, dose: 96.0 mg/kg/injection, schedule: Q## X032 (ip), vehicle: saline 106 % of control and 115 % of control | endpoint: mean survival time, dose: 100.0 mg/kg/injection, schedule: Q01DX001 (ip), vehicle: saline 114 % of control | endpoint: mean survival time, dose: 100.0 mg/kg/injection, schedule: Q01DX009 (ip), vehicle: saline with Tween-80 100 % of control | endpoint: mean survival time, dose: 100.0 mg/kg/injection, schedule: Q01DX Z (ip), vehicle: carboxymethylcellulose (CMC) 117 % of control | endpoint: mean survival time, dose: 100.0 mg/kg/injection, schedule: Q04DX003 (ip), vehicle: saline with Tween-80 112 % of control | endpoint: mean survival time, dose: 108.0 mg/kg/injection, schedule: Q## X004 (ip), vehicle: saline 106 % of control | endpoint: mean survival time, dose: 120.0 mg/kg/injection, schedule: Q01DX001 (ip), vehicle: alkali diluted with saline 106 % of control | endpoint: mean survival time, dose: 120.0 mg/kg/injection, schedule: Q01DX009 (ip), vehicle: Klucel (hydroxypropylcellulose) (HPC) 96 % of control | endpoint: mean survival time, dose: 120.0 mg/kg/injection, schedule: Q01DX009 (ip), vehicle: saline with Tween-80 116 % of control | endpoint: mean survival time, dose: 126.0 mg/kg/injection, schedule: Q02DX008 (ip), vehicle: saline 112 % of control | endpoint: mean survival time, dose: 128.25 mg/kg/injection, schedule: Q02DX010 (ip), vehicle: other 74 % of control | endpoint: mean survival time, dose: 144.0 mg/kg/injection, schedule: Q## X032 (ip), vehicle: saline 118 % of control and 123 % of control | endpoint: mean survival time, dose: 162.0 mg/kg/injection, schedule: Q## X004 (ip), vehicle: saline 110 % of control | endpoint: mean survival time, dose: 180.0 mg/kg/injection, schedule: Q01DX001 (ip), vehicle: alkali diluted with saline 103 % of control | endpoint: mean survival time, dose: 180.0 mg/kg/injection, schedule: Q04DX003 (ip), vehicle: saline 97 % of control | endpoint: mean survival time, dose: 189.0 mg/kg/injection, schedule: Q02DX008 (ip), vehicle: saline 114 % of control | endpoint: mean survival time, dose: 200.0 mg/kg/injection, schedule: Q04DX003 (ip), vehicle: saline with Tween-80 103 % of control | endpoint: mean survival time, dose: 216.0 mg/kg/injection, schedule: Q## X032 (ip), vehicle: saline 113 % of control and 117 % of control | endpoint: mean survival time, dose: 240.0 mg/kg/injection, schedule: Q04DX003 (ip), vehicle: Klucel (hydroxypropylcellulose) (HPC) 116 % of control | endpoint: mean survival time, dose: 320.0 mg/kg/injection, schedule: Q## X032 (ip), vehicle: saline 110 % of control | endpoint: median survival time, dose: 25.0 mg/kg/injection, schedule: Q04DX003 (ip), vehicle: alkali diluted with saline 103 % of control | endpoint: median survival time, dose: 50.0 mg/kg/injection, schedule: Q04DX003 (ip), vehicle: alkali diluted with saline 106 % of control | endpoint: median survival time, dose: 100.0 mg/kg/injection, schedule: Q04DX003 (ip), vehicle: alkali diluted with saline 103 % of control | endpoint: median survival time, dose: 200.0 mg/kg/injection, schedule: Q04DX003 (ip), vehicle: alkali diluted with saline 106 % of control

O=C1OC(=O)C(=C(c2ccccc2)c2ccccc2)C1=C(c1ccccc1)c1ccccc1
inactive: endpoint: mean survival time, dose: 100.0 mg/kg/injection, schedule: Q01DX009 (ip), vehicle: Klucel (hydroxypropylcellulose) (HPC) 101 % of control | endpoint: mean survival time, dose: 200.0 mg/kg/injection, schedule: Q01DX009 (ip), vehicle: Klucel (hydroxypropylcellulose) (HPC) 92 % of control | endpoint: mean survival time, dose: 400.0 mg/kg/injection, schedule: Q01DX009 (ip), vehicle: Klucel (hydroxypropylcellulose) (HPC) 92 % of control

Cc1ccc(-n2c(=O)c(N=Nc3ccc(Cl)cc3)c(O)n(-c3ccccc3Cl)c2=S)cc1
inactive: endpoint: mean survival time, dose: 25.0 mg/kg/injection, schedule: Q01DX001 (ip), vehicle: Klucel (hydroxypropylcellulose) (HPC) 97 % of control | endpoint: mean survival time, dose: 50.0 mg/kg/injection, schedule: Q01DX001 (ip), vehicle: Klucel (hydroxypropylcellulose) (HPC) 101 % of control | endpoint: mean survival time, dose: 100.0 mg/kg/injection, schedule: Q01DX001 (ip), vehicle: Klucel (hydroxypropylcellulose) (HPC) 92 % of control
